In ChEMBL document CHEMBL1909046, “DrugMatrix in vitro pharmacology data”:

What was measured:
[1] = DRUGMATRIX: Atrial Natriuretic Factor (ANF) radioligand binding (ligand: [125I] ANF (rat)); type: cell membranes, Cavia porcellus, Dunkin-Hartley, Adrenal gland, Membrane; details: Not Active = under 50% inhibition at 10 µM
[2] = DRUGMATRIX: Serotonin (5-Hydroxytryptamine) 5-HT3 radioligand binding (ligand: [3H] GR-65630); type: cell membranes, Membrane; details: hek293; Not Active = under 50% inhibition at 10 µM
[3] = target: T1, C-X-C chemokine receptor type 2 (Homo sapiens, UniProt P25025); type: cell membranes, Membrane; details: cho-k1; note: in other assays of this panel Not Active means under 50% inhibition at 10 µM
T1 sequence (P25025 whole entry): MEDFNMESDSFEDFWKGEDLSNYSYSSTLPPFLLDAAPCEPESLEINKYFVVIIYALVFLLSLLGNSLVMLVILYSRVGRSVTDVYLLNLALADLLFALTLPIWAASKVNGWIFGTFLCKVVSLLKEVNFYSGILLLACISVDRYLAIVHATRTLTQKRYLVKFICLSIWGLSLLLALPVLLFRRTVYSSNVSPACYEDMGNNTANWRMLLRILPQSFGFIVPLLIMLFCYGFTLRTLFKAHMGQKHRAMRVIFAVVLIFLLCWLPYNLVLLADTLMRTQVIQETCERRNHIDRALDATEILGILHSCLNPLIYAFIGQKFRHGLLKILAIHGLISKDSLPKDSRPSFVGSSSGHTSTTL

[4] = DRUGMATRIX: GABAA, Chloride Channel, TBOB radioligand binding (ligand: [3H] TBOB); type: cell membranes, Rattus norvegicus, Wistar, Cerebral cortex, Membrane; details: Not Active = under 50% inhibition at 10 µM
Melanocortin receptor 3 = Melanocortin receptor 3 (Homo sapiens, UniProt P41968); type: cell membranes, Membrane; details: hek293; note: in other assays of this panel Not Active means under 50% inhibition at 10 µM
[5] = target: Delta-type opioid receptor (Homo sapiens, UniProt P41143); type: cell membranes, HEK293, Membrane; details: hek293; note: in other assays of this panel Not Active means under 50% inhibition at 10 µM
[6] = target: cGMP-specific 3',5'-cyclic phosphodiesterase (Homo sapiens, UniProt O76074); assay: DRUGMATRIX: Phosphodiesterase PDE5 enzyme inhibition (substrate: [3H]cGMP + cGMP); type: tissue-based; details: platelet; Not Active = under 50% inhibition at 10 µM
Progesterone receptor = target: T2, Progesterone receptor (Bos taurus, UniProt Q690N0); assay: DRUGMATRIX: Progesterone radioligand binding (ligand: [3H] R-5020); type: tissue-based, Uterus; details: Not Active = under 50% inhibition at 10 µM; for Ki: read-out: Ki
T2 sequence (Q690N0 whole entry): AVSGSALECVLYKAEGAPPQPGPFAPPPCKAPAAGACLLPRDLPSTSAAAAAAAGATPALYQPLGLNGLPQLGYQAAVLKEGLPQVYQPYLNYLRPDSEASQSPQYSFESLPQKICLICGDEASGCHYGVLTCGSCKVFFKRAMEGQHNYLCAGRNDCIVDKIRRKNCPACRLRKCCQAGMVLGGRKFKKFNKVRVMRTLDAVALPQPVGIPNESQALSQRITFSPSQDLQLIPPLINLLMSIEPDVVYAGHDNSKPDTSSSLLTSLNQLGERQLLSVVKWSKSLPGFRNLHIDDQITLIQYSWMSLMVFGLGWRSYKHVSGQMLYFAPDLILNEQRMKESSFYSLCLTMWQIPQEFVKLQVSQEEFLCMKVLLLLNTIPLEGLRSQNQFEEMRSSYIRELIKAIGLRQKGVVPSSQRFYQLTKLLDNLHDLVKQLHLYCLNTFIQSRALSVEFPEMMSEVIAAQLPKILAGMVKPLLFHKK

Melanocortin receptor 3, sequence (P41968 whole entry): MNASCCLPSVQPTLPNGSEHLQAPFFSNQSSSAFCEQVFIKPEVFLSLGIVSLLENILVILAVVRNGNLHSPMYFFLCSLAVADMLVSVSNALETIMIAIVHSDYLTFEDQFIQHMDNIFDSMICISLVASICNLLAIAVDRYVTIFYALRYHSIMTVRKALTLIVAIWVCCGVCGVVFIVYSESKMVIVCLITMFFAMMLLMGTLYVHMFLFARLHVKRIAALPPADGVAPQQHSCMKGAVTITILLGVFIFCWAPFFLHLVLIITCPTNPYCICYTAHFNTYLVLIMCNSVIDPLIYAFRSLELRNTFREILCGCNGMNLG
Delta-type opioid receptor, sequence (P41143 whole entry): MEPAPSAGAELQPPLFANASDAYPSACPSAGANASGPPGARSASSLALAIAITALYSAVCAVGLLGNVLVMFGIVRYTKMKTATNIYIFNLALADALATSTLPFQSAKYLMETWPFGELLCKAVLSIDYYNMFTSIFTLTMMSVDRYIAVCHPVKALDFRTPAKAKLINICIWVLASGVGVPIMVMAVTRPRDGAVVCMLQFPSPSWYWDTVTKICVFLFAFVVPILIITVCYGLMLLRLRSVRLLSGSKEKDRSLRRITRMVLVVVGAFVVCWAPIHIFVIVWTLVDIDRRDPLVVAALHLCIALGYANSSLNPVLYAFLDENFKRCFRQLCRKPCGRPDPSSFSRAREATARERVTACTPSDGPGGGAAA

SMILES	IC50 [1]	Ki [1]	IC50 [2]	Ki [2]	IC50 [3]	IC50 [4]	Ki [4]	IC50 (Melanocortin receptor 3)	IC50 [5]	IC50 [6]	IC50 (Progesterone receptor)	IC50 (Progesterone receptor; read-out: IC50) [nM]	Ki (Progesterone receptor) [nM]
CCN[C@@H]1C[C@H](N)[C@@H](O[C@H]2OC(CN)=CC[C@H]2N)[C@H](O)[C@H]1O[C@H]1OC[C@](C)(O)[C@H](NC)[C@H]1O [NETILMICIN]	Not Active	Not Active	Not Active	Not Active	Not Active	Not Active	Not Active	Not Active	Not Active	Not Active	Not Active		
CCOC(=O)C(C)(C)Oc1ccc(Cl)cc1 [CLOFIBRATE]	Not Active	Not Active	Not Active	Not Active	Not Active	Not Active	Not Active	Not Active	Not Active	Not Active	Not Active		
C#C[C@]1(OC(C)=O)CC[C@H]2[C@@H]3CCC4=CC(=O)CC[C@@H]4[C@H]3CC[C@@]21C [NORETHINDRONE ACETATE]	Not Active	Not Active	Not Active	Not Active	Not Active	Not Active	Not Active	Not Active	Not Active	Not Active		28	3.62
COC(=O)C1=C(C)NC(C)=C(C(=O)OCC(C)C)C1c1ccccc1[N+](=O)[O-] (stereo not drawn) [NISOLDIPINE]	Not Active	Not Active	Not Active	Not Active	Not Active	Not Active	Not Active	Not Active	Not Active	Not Active	Not Active		
CC(=O)Nc1c(I)c(NC(C)=O)c(I)c(C(=O)O)c1I [DIATRIZOIC ACID]	Not Active	Not Active	Not Active	Not Active	Not Active	Not Active	Not Active	Not Active	Not Active	Not Active	Not Active		
C[C@@H]1C[C@@H]([C@H](O)CC2CC(=O)NC(=O)C2)C(=O)[C@@H](C)C1 [CYCLOHEXIMIDE]	Not Active	Not Active	Not Active	Not Active	Not Active	Not Active	Not Active	Not Active	Not Active	Not Active	Not Active		
Cc1cc(=O)n(-c2ccccc2)n1C [ANTIPYRINE]	Not Active	Not Active	Not Active	Not Active	Not Active	Not Active	Not Active	Not Active	Not Active	Not Active	Not Active		
CC1(C)O[C@@H]2C[C@H]3[C@@H]4C[C@H](F)C5=CC(=O)CC[C@]5(C)[C@H]4[C@@H](O)C[C@]3(C)[C@]2(C(=O)CO)O1 [FLURANDRENOLIDE]	Not Active	Not Active	Not Active	Not Active	Not Active	Not Active	Not Active	Not Active	Not Active	Not Active		172	22
CC(=O)OCC(=O)[C@@]1(O)CC[C@H]2[C@@H]3CCC4=CC(=O)CC[C@]4(C)[C@H]3C(=O)C[C@@]21C [CORTISONE ACETATE]	Not Active	Not Active	Not Active	Not Active	Not Active	Not Active	Not Active	Not Active	Not Active	Not Active	Not Active		
CCN1CC(CCN2CCOCC2)C(c2ccccc2)(c2ccccc2)C1=O (stereo not drawn) [DOXAPRAM]	Not Active	Not Active	Not Active	Not Active	Not Active	Not Active	Not Active	Not Active	Not Active	Not Active	Not Active		
NC(=O)c1cnccn1 [PYRAZINAMIDE]	Not Active	Not Active	Not Active	Not Active	Not Active	Not Active	Not Active	Not Active	Not Active	Not Active	Not Active		
